Source: ChEMBL document CHEMBL1131424 (J Med Chem, 1998)

These compounds were tested against T1, 5-hydroxytryptamine receptor 1A (Rattus norvegicus, UniProt P19327) (assay: Binding affinity for rat cortex 5-hydroxytryptamine 1A receptor, by displacement of 0.2 nM [3H]8-OH-DPAT radioligand).
T1 sequence (P19327 whole entry): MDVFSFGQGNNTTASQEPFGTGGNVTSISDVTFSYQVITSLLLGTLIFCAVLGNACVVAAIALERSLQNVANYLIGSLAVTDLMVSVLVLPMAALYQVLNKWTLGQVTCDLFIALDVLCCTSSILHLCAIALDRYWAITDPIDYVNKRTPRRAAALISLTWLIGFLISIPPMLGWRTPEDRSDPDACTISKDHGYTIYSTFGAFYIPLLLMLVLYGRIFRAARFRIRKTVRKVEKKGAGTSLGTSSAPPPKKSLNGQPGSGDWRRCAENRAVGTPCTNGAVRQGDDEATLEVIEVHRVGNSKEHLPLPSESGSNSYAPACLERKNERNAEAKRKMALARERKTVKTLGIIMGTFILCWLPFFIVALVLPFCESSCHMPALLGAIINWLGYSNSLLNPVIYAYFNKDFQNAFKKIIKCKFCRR
Cc1cccc(C(=O)N2CCC(CNCc3cccc(-n4cccn4)n3)CC2)c1 was tested, and the Ki was 3.47 nM. With O=C(c1ccc(Cl)cc1)N1CCC(CNCc2cccc(-n3cccn3)n2)CC1 the Ki was 49 nM. O=C(c1ccc(Cl)c(Cl)c1)N1CCC(CNCc2cccc(Cl)n2)CC1 gave a Ki of 4.57 nM. N#Cc1cccc(C(=O)N2CCC(CNCc3cccc(-n4cccn4)n3)CC2)c1 was tested, and the Ki was 17.8 nM. Compound N#Cc1cccc(CNCC2CCN(C(=O)c3ccc(Cl)c(Cl)c3)CC2)n1 has a Ki of 50.1 nM. Work on O=C(c1ccc(Cl)c(Cl)c1)N1CCC(CNCc2cccc(F)n2)CC1 yielded a Ki of 8.91 nM. In the case of O=C(c1ccccc1)N1CCC(CNCc2cccc(-n3cccn3)n2)CC1, the Ki is reported as 33.1 nM. With O=C(c1ccc(Cl)c(Cl)c1)N1CCC(CNCc2cccc(-n3ccnc3)n2)CC1 the Ki was 7.41 nM. O=C(c1ccc(Cl)c(Cl)c1)N1CCC(CNCc2cccc(N3CCCC3)n2)CC1 gave a Ki of 1.58 nM. Work on COc1cccc(CNCC2CCN(C(=O)c3ccc(Cl)c(Cl)c3)CC2)n1 yielded a Ki of 3.47 nM. CC(C)c1cccc(CNCC2CCN(C(=O)c3ccc(Cl)c(Cl)c3)CC2)n1 gave a Ki of 0.631 nM. For Cc1cccc(CNCC2CCN(C(=O)c3ccc(Cl)c(Cl)c3)CC2)n1, the Ki was 4.07 nM. Compound O=C(c1ccc(Cl)c(Cl)c1)N1CCC(CNCc2cc(-n3cccn3)ccn2)CC1 has a Ki of 646 nM. With O=C(c1ccc(Cl)c(Cl)c1)N1CCC(CNCCc2cccc(-n3cccn3)n2)CC1 the Ki was 3.55 nM. For CCOc1cccc(C(=O)N2CCC(CNCc3cccc(-n4cccn4)n3)CC2)c1, the Ki was 10.7 nM. O=C(c1ccccc1Cl)N1CCC(CNCc2cccc(-n3cccn3)n2)CC1 showed a Ki of 132 nM. O=S(=O)(c1ccc(Cl)c(Cl)c1)N1CCC(CNCc2cccc(-n3cccn3)n2)CC1 gave a Ki of 200 nM. In the case of Clc1ccc(CN2CCC(CNCc3cccc(-n4cccn4)n3)CC2)cc1Cl, the Ki is reported as 17.8 nM. O=C(c1ccc(F)c(Cl)c1)N1CCC(CNCc2cccc(-n3cccn3)n2)CC1 was tested, and the Ki was 1.55 nM. In the case of NC(=O)c1cccc(CNCC2CCN(C(=O)c3ccc(Cl)c(Cl)c3)CC2)n1, the Ki is reported as 46.8 nM. Work on O=C(c1ccc(Cl)c(Cl)c1)N1CCC(CNCCc2ccncc2)CC1 yielded a Ki of over 1000 nM. With O=C(NCC#CCNCc1cccc(-n2cccn2)n1)c1ccc(Cl)c(Cl)c1 the Ki was 245 nM. Work on CN(CCCCNCc1cccc(-n2cccn2)n1)C(=O)c1ccccc1 yielded a Ki of 170 nM. Compound Cn1c(=O)cnn(CCCCNCc2cccc(-n3cccn3)n2)c1=O has a Ki of 110 nM. CCCN(C)c1cccc(CNCC2CCN(C(=O)c3ccc(Cl)c(Cl)c3)CC2)n1 gave a Ki of 11.7 nM. In the case of CCCN(CCC)Cc1cccc(-n2cccn2)n1, the Ki is reported as over 10000 nM. CCCCOc1cccc(CNCC2CCN(C(=O)c3ccc(Cl)c(Cl)c3)CC2)n1 was tested, and the Ki was 18.6 nM. For O=C(C1CCCCC1)N1CCC(CNCc2cccc(-n3cccn3)n2)CC1, the Ki was 29.5 nM. COc1ccc2[nH]cc(CCNCc3cccc(-n4cccn4)n3)c2c1 was tested, and the Ki was 661 nM. O=C(c1ccc(Cl)c(Cl)c1)N1CCC(CNCc2cccc(-n3cccc3)n2)CC1 showed a Ki of 4.27 nM. Compound O=C(c1cccc(Cl)c1)N1CCC(CNCc2cccc(-n3cccn3)n2)CC1 has a Ki of 2.29 nM. Compound CN(C)c1cccc(CNCC2CCN(C(=O)c3ccc(Cl)c(Cl)c3)CC2)c1 has a Ki of 75.9 nM. For COC(=O)c1ccc(C(=O)N2CCC(CNCc3cccc(-n4cccn4)n3)CC2)cc1Cl, the Ki was 166 nM. With O=C(c1ccc(Cl)c(Cl)c1)N1CCC(CNCc2cccc(F)c2)CC1 the Ki was 14.8 nM. O=C(c1ccc(Cl)c(Cl)c1)N1CCC(CNCc2cccc(-n3cccc3)c2)CC1 showed a Ki of 295 nM. Cc1cccc(C(=O)NCCCCNCc2cccc(-n3cccn3)n2)c1 showed a Ki of 14.1 nM. O=C(c1cccc(C(F)(F)F)c1)N1CCC(CNCc2cccc(-n3cccn3)n2)CC1 was tested, and the Ki was 3.55 nM. Work on O=C(c1ccc(Cl)c(Cl)c1)N1CCC(CNCc2cccc(-c3ncc[nH]3)n2)CC1 yielded a Ki of 2.69 nM. With O=C(c1ccc(Cl)c(Cl)c1)N1CCC(CNCc2cccc(-n3cccn3)n2)CC1 the Ki was 1.66 nM. O=C(c1ccc(Cl)c(Cl)c1)N1CCC(CNCc2cccc(-c3cnco3)n2)CC1 was tested, and the Ki was 0.933 nM. In the case of O=C(c1ccc(Cl)c(Cl)c1)N1CCC(CNCc2cccc(N3CCC3)n2)CC1, the Ki is reported as 0.372 nM. With O=C(c1cc(Cl)cc(Cl)c1)N1CCC(CNCc2cccc(-n3cccn3)n2)CC1 the Ki was 26.3 nM. In the case of O=C(c1ccc(Cl)c(Cl)c1)N1CCC(CNCCc2cccc(F)n2)CC1, the Ki is reported as 3.16 nM. For O=C(c1ccc(Cl)c(Cl)c1)N1CCC(CNCCCc2ccccn2)CC1, the Ki was 42.7 nM. O=C(N1CCC(CNCc2cccc(-n3cccn3)n2)CC1)C12C[C@H]3C[C@@H](C1)C[C@@H](C2)C3 was tested, and the Ki was 13.2 nM. Compound O=C(c1ccc(Cl)c(Cl)c1)N1CCC(CNCCc2ccccn2)CC1 has a Ki of 1.2 nM. Compound O=C(NCCNCc1cccc(-n2cccn2)n1)C12C[C@H]3C[C@@H](C1)C[C@@H](C2)C3 has a Ki of 27.5 nM. COc1ccc(C(=O)N2CCC(CNCc3cccc(-n4cccn4)n3)CC2)cc1Cl was tested, and the Ki was 9.12 nM. O=C(c1ccc(Cl)c(Cl)c1)N1CCC(CNCc2cc(Cl)ccn2)CC1 gave a Ki of 9.12 nM. Compound Cc1ccc(C(=O)N2CCC(CNCc3cccc(-n4cccn4)n3)CC2)cc1Cl has a Ki of 1.41 nM. Compound O=C(c1ccc(Cl)c(Cl)c1)N1CCC(CNCc2cccc(-c3ccccc3)n2)CC1 has a Ki of 7.41 nM. With O=C(c1ccc(Cl)c(Cl)c1)N1CCCC(CNCc2cccc(-n3cccn3)n2)C1 (configuration not stated) the Ki was 407 nM. With O=C(c1cccc(F)c1)N1CCC(CNCc2cccc(-n3cccn3)n2)CC1 the Ki was 13.5 nM. With CSc1cccc(CNCC2CCN(C(=O)c3ccc(Cl)c(Cl)c3)CC2)n1 the Ki was 2.57 nM. For C[S+]([O-])c1cccc(CNCC2CCN(C(=O)c3ccc(Cl)c(Cl)c3)CC2)n1 (configuration not stated), the Ki was 46.8 nM. In the case of O=C(c1ccc(Cl)c(Cl)c1)N1CCC(CNCc2cccc(-c3ccc[nH]3)n2)CC1, the Ki is reported as 6.03 nM. Work on O=C(c1ccc(Cl)c(Cl)c1)N1CCC(CNCc2cccc(-c3ccco3)n2)CC1 yielded a Ki of 0.724 nM. Fc1ccc(C(CCCNCc2cccc(-n3cccn3)n2)c2ccc(F)cc2)cc1 gave a Ki of 151 nM. Compound O=C(c1cccc(Cl)c1Cl)N1CCC(CNCc2cccc(-n3cccn3)n2)CC1 has a Ki of 100 nM. For O=C(c1ccc(Cl)c(Cl)c1)N1CCC(CNCc2cccc(-c3cccs3)n2)CC1, the Ki was 1.38 nM. Work on CN(C)c1cccc(CNCC2CCN(C(=O)c3ccc(Cl)c(Cl)c3)CC2)n1 yielded a Ki of 1.41 nM. With O=C(c1ccc(Cl)c(Cl)c1)N1CCC(CNCCc2cccnc2)CC1 the Ki was 933 nM. For O=C(c1ccc(Cl)c(Cl)c1)N1CCC(CNCc2cccnc2)CC1, the Ki was 417 nM. With CNc1cccc(CNCC2CCN(C(=O)c3ccc(Cl)c(Cl)c3)CC2)n1 the Ki was 1.74 nM. With O=C(c1ccc(Cl)c(Cl)c1)N1CCC(CNCc2cccc(-c3cc[nH]n3)n2)CC1 the Ki was 0.537 nM. O=C(c1ccc(Cl)c(Cl)c1)N1CCC(CNCc2cccc(-c3nccs3)n2)CC1 was tested, and the Ki was 0.347 nM. In the case of O=C(c1ccc(Cl)c(Cl)c1)N1CCC(CNCc2ccccn2)CC1, the Ki is reported as 26.3 nM.
